{
  "source": "patent US20260265329A1",
  "about": "“POLYPEPTIDE AND DERIVATIVE THEREOF, COMPOSITION, AND USE THEREOF” (HANGZHOU SCIWIND BIOSCIENCES CO., LTD., priority 2023, published 2026)",
  "key": {"human amylin receptors": {"target": "T1, human amylin receptors (Homo sapiens, UniProt O60896+P30988)", "T1 construct": "host or cells: CHO-K1/Ga15/AMY3 cells, further stably transfected with a CRE-luciferase plasmid", "T1 sequence (P30988 25-474)": "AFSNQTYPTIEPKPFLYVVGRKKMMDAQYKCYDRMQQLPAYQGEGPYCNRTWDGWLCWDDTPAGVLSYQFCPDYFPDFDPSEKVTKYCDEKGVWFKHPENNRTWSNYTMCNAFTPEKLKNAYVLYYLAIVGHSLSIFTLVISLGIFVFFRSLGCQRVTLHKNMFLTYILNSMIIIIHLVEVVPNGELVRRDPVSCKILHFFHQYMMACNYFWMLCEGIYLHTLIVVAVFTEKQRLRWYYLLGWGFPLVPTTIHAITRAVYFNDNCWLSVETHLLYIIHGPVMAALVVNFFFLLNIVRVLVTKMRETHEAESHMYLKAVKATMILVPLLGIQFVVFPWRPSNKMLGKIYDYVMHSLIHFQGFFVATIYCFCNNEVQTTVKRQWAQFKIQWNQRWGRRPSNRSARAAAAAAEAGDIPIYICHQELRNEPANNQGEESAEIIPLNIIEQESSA", "T1 sequence (O60896 24-148 partner)": "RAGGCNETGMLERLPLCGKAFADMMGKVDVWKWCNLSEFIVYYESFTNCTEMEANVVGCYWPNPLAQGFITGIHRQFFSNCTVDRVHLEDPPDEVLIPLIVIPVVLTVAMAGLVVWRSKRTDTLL", "test": "Luciferase assay in stably transfected amylin receptor/CRE-luc CHO cell line", "assay_type": "cell-based", "conditions": "for Relative activity: EC50 ratio of Cagrilintide to the compound, Cagrilintide 100%; for EC50: amylin receptor/CRE-luc CHO cells, 24 hours incubation, luminescence"}, "[1]": {"test": "Heat accelerated stability assay, 40° C., detection on 10 d and 20 d", "assay_type": "physicochemical", "conditions": "1 mg/mL, pH about 7.4, 40° C.", "protocol": "The derivatives (1 mg/mL) were mixed with sodium dihydrogen phosphate (1.42 mg/mL) and dissolved in ultrapure water. After adjusting pH to about 7.4 with hydrochloric acid/sodium hydroxide, the solution was filtered into a sterilized vial in a clean bench using a 0.22 μm sterile filter. The vial was then capped and placed into the stability test chamber at 40° C. Detections were made on 10d and 20d, and during the assay changes in the characteristics and properties of the polypeptides were observed and recorded. The sample was then centrifuged for 3 min at 10000 rpm at 4° C., and the supernatant was transferred to a liquid phase sample vial for detecting the concentration and purity of the polypeptides using liquid phase chromatography described as below.\nFlow rate: 1.0 mL/min; Autosampler temperature: 25° C.; Column temperature: 25° C.; Detection wavelength: 214 nm; Mobile phase A: 110 mM phosphate buffer (pH 5.8): ACN=90:10; Mobile phase B: ACN: IPA: H2O=85:5:10; and Gradient of elution listed in Table 6: […]"}},
  "note": "Starred links: 1 amine or outer side, 2 acyl side, 3 side chain; linkers in the order of their positions; H or OH if unused. Non-standard residues stand in square brackets, D forms with d. Residues, ends and D or L forms follow the SMILES beside them. *: point of attachment. C20 diacid = O=C(O)CCCCCCCCCCCCCCCCCCC(=O)*; γGlu = O=C(O)[C@H](CCC(=O)[*:2])N[*:1]; Hyp = O=C(O)[C@@H]1C[C@@H](O)CN1",
  "data": [
    {"compound": "CC[C@H](C)[C@H](NC(=O)[C@@H]1CCCN1C(=O)[C@H](CCCCN)NC(=O)[C@H](CC(C)C)NC(=O)[C@H](CC(N)=O)NC(=O)[C@H](CO)NC(=O)[C@H](CO)NC(=O)[C@H](CO)NC(=O)[C@H](Cc1c[nH]cn1)NC(=O)[C@H](CCCNC(=N)N)NC(=O)[C@H](CC(C)C)NC(=O)[C@H](Cc1ccccc1)NC(=O)[C@H](CC(=O)O)NC(=O)[C@H](C)NC(=O)[C@H](CC(C)C)NC(=O)[C@H](CCCNC(=N)N)NC(=O)[C@H](CCC(N)=O)NC(=O)[C@@H](NC(=O)[C@H](C)NC(=O)[C@H](C)NC(=O)[C@@H](NC(=O)[C@H](CO)NC(=O)[C@H](CC(C)C)NC(=O)[C@H](CCC(N)=O)NC(=O)[C@H](CO)NC(=O)[C@H](C)NC(=O)CC[C@H](NC(=O)CCCCCCCCCCCCCCCCCCC(=O)O)C(=O)O)[C@@H](C)O)[C@@H](C)O)C(=O)N[C@@H](CC(C)C)C(=O)N1CCC[C@H]1C(=O)N1CCC[C@H]1C(=O)N[C@H](C(=O)N[C@@H](CC(N)=O)C(=O)N[C@H](C(=O)NCC(=O)N[C@@H](CO)C(=O)N[C@@H](CC(N)=O)C(=O)N[C@H](C(=O)N1C[C@H](O)C[C@H]1C(N)=O)[C@@H](C)O)C(C)C)[C@@H](C)O", "note": "[M48] ({C20 diacid-γGlu}-ASQLSTAATQRLADFLRHSSSNLKPILPPTNVGSNT[Hyp]-NH2)", "values": [
      {"measurement": "Relative activity", "setting": "human amylin receptors", "result": 180, "unit": "%"},
      {"measurement": "EC50", "setting": "human amylin receptors", "result": 0.05, "unit": "nM"},
      {"measurement": "Reduction in purity, 10 d", "setting": "[1]", "result": 8.61, "unit": "%"}
    ]},
    {"compound": "CC[C@H](C)[C@H](NC(=O)[C@@H]1CCCN1C(=O)[C@H](CCCCN)NC(=O)[C@H](CC(C)C)NC(=O)[C@H](CC(N)=O)NC(=O)[C@H](CCCNC(=N)N)NC(=O)[C@H](CO)NC(=O)[C@H](CO)NC(=O)[C@H](Cc1c[nH]cn1)NC(=O)[C@H](CCCNC(=N)N)NC(=O)[C@H](CC(C)C)NC(=O)[C@H](Cc1ccccc1)NC(=O)[C@H](CC(=O)O)NC(=O)[C@H](C)NC(=O)[C@H](CC(C)C)NC(=O)[C@H](CCCNC(=N)N)NC(=O)[C@H](CCC(N)=O)NC(=O)[C@@H](NC(=O)[C@H](C)NC(=O)[C@H](C)NC(=O)[C@@H](NC(=O)[C@H](CO)NC(=O)[C@H](CC(C)C)NC(=O)[C@H](CCC(N)=O)NC(=O)[C@H](CO)NC(=O)[C@H](C)NC(=O)CC[C@H](NC(=O)CCCCCCCCCCCCCCCCCCC(=O)O)C(=O)O)[C@@H](C)O)[C@@H](C)O)C(=O)N[C@@H](CC(C)C)C(=O)N1CCC[C@H]1C(=O)N1CCC[C@H]1C(=O)N[C@H](C(=O)N[C@@H](CC(N)=O)C(=O)N[C@H](C(=O)NCC(=O)N[C@@H](CO)C(=O)N[C@@H](CC(N)=O)C(=O)N[C@H](C(=O)N1C[C@H](O)C[C@H]1C(N)=O)[C@@H](C)O)C(C)C)[C@@H](C)O", "note": "[M54] ({C20 diacid-γGlu}-ASQLSTAATQRLADFLRHSSRNLKPILPPTNVGSNT[Hyp]-NH2)", "values": [
      {"measurement": "Relative activity", "setting": "human amylin receptors", "result": 267, "unit": "%"},
      {"measurement": "EC50", "setting": "human amylin receptors", "result": 0.06, "unit": "nM"},
      {"measurement": "Reduction in purity, 10 d", "setting": "[1]", "result": 11.67, "unit": "%"},
      {"measurement": "Reduction in purity, 20 d", "setting": "[1]", "result": 20.56, "unit": "%"}
    ]},
    {"compound": "CC[C@H](C)[C@H](NC(=O)[C@@H]1CCCN1C(=O)[C@H](CCCCN)NC(=O)[C@H](CC(C)C)NC(=O)[C@H](CC(N)=O)NC(=O)[C@H](CCCCN)NC(=O)[C@H](CO)NC(=O)[C@H](CO)NC(=O)[C@H](Cc1c[nH]cn1)NC(=O)[C@H](CCCNC(=N)N)NC(=O)[C@H](CC(C)C)NC(=O)[C@H](Cc1ccccc1)NC(=O)[C@H](CC(=O)O)NC(=O)[C@H](C)NC(=O)[C@H](CC(C)C)NC(=O)[C@H](CCCNC(=N)N)NC(=O)[C@H](CCC(N)=O)NC(=O)[C@@H](NC(=O)[C@H](C)NC(=O)[C@H](C)NC(=O)[C@@H](NC(=O)[C@H](CO)NC(=O)[C@H](CC(C)C)NC(=O)[C@H](CCC(N)=O)NC(=O)[C@H](CO)NC(=O)[C@H](C)NC(=O)CC[C@H](NC(=O)CCCCCCCCCCCCCCCCCCC(=O)O)C(=O)O)[C@@H](C)O)[C@@H](C)O)C(=O)N[C@@H](CC(C)C)C(=O)N1CCC[C@H]1C(=O)N1CCC[C@H]1C(=O)N[C@H](C(=O)N[C@@H](CC(N)=O)C(=O)N[C@H](C(=O)NCC(=O)N[C@@H](CO)C(=O)N[C@@H](CC(N)=O)C(=O)N[C@H](C(=O)N1C[C@H](O)C[C@H]1C(N)=O)[C@@H](C)O)C(C)C)[C@@H](C)O", "note": "[M53] ({C20 diacid-γGlu}-ASQLSTAATQRLADFLRHSSKNLKPILPPTNVGSNT[Hyp]-NH2)", "values": [
      {"measurement": "Relative activity", "setting": "human amylin receptors", "result": 200, "unit": "%"},
      {"measurement": "EC50", "setting": "human amylin receptors", "result": 0.08, "unit": "nM"},
      {"measurement": "Reduction in purity, 10 d", "setting": "[1]", "result": 11.82, "unit": "%"},
      {"measurement": "Reduction in purity, 20 d", "setting": "[1]", "result": 19.98, "unit": "%"}
    ]},
    {"compound": "CC[C@H](C)[C@H](NC(=O)[C@@H]1CCCN1C(=O)[C@H](CCCCN)NC(=O)[C@H](CC(C)C)NC(=O)[C@H](CC(N)=O)NC(=O)[C@H](CCC(=O)O)NC(=O)[C@H](CO)NC(=O)[C@H](CO)NC(=O)[C@H](Cc1c[nH]cn1)NC(=O)[C@H](CCCNC(=N)N)NC(=O)[C@H](CC(C)C)NC(=O)[C@H](Cc1ccccc1)NC(=O)[C@H](CC(=O)O)NC(=O)[C@H](C)NC(=O)[C@H](CC(C)C)NC(=O)[C@H](CCCNC(=N)N)NC(=O)[C@H](CCC(N)=O)NC(=O)[C@@H](NC(=O)[C@H](C)NC(=O)[C@H](C)NC(=O)[C@@H](NC(=O)[C@H](CO)NC(=O)[C@H](CC(C)C)NC(=O)[C@H](CCC(N)=O)NC(=O)[C@H](CO)NC(=O)[C@H](C)NC(=O)CC[C@H](NC(=O)CCCCCCCCCCCCCCCCCCC(=O)O)C(=O)O)[C@@H](C)O)[C@@H](C)O)C(=O)N[C@@H](CC(C)C)C(=O)N1CCC[C@H]1C(=O)N1CCC[C@H]1C(=O)N[C@H](C(=O)N[C@@H](CC(N)=O)C(=O)N[C@H](C(=O)NCC(=O)N[C@@H](CO)C(=O)N[C@@H](CC(N)=O)C(=O)N[C@H](C(=O)N1C[C@H](O)C[C@H]1C(N)=O)[C@@H](C)O)C(C)C)[C@@H](C)O", "note": "[M47] ({C20 diacid-γGlu}-ASQLSTAATQRLADFLRHSSENLKPILPPTNVGSNT[Hyp]-NH2)", "values": [
      {"measurement": "Relative activity", "setting": "human amylin receptors", "result": 113, "unit": "%"},
      {"measurement": "EC50", "setting": "human amylin receptors", "result": 0.08, "unit": "nM"},
      {"measurement": "Reduction in purity, 10 d", "setting": "[1]", "result": 9.25, "unit": "%"}
    ]},
    {"compound": "CC[C@H](C)[C@H](NC(=O)[C@@H]1CCCN1C(=O)[C@H](CCCCN)NC(=O)[C@H](CC(C)C)NC(=O)[C@H](CC(N)=O)NC(=O)CNC(=O)[C@H](CO)NC(=O)[C@H](CO)NC(=O)[C@H](Cc1c[nH]cn1)NC(=O)[C@H](CCCNC(=N)N)NC(=O)[C@H](CC(C)C)NC(=O)[C@H](Cc1ccccc1)NC(=O)[C@H](CC(=O)O)NC(=O)[C@H](C)NC(=O)[C@H](CC(C)C)NC(=O)[C@H](CCCNC(=N)N)NC(=O)[C@H](CCC(N)=O)NC(=O)[C@@H](NC(=O)[C@H](C)NC(=O)[C@H](C)NC(=O)[C@@H](NC(=O)[C@H](CO)NC(=O)[C@H](CC(C)C)NC(=O)[C@H](CCC(N)=O)NC(=O)[C@H](CO)NC(=O)[C@H](C)NC(=O)CC[C@H](NC(=O)CCCCCCCCCCCCCCCCCCC(=O)O)C(=O)O)[C@@H](C)O)[C@@H](C)O)C(=O)N[C@@H](CC(C)C)C(=O)N1CCC[C@H]1C(=O)N1CCC[C@H]1C(=O)N[C@H](C(=O)N[C@@H](CC(N)=O)C(=O)N[C@H](C(=O)NCC(=O)N[C@@H](CO)C(=O)N[C@@H](CC(N)=O)C(=O)N[C@H](C(=O)N1C[C@H](O)C[C@H]1C(N)=O)[C@@H](C)O)C(C)C)[C@@H](C)O", "note": "[M51] ({C20 diacid-γGlu}-ASQLSTAATQRLADFLRHSSGNLKPILPPTNVGSNT[Hyp]-NH2)", "values": [
      {"measurement": "Relative activity", "setting": "human amylin receptors", "result": 163, "unit": "%"},
      {"measurement": "EC50", "setting": "human amylin receptors", "result": 0.08, "unit": "nM"},
      {"measurement": "Reduction in purity, 10 d", "setting": "[1]", "result": 23.4, "unit": "%"},
      {"measurement": "Reduction in purity, 20 d", "setting": "[1]", "result": 35.42, "unit": "%"}
    ]}
  ]
}
